Among the data in publication PMC9230431, “Application of In Silico Filtering and Isothermal Titration Calorimetry for the Discovery of Small Molecule Inhibitors of MDM2” (Pharmaceuticals, 2022) are Kd values, retold here.

Each structure is given as a SMILES string. Like-named read-outs stand apart in the source and are kept apart here.

This assay has as its target T1, MDM2 (Homo sapiens, UniProt Q00987).
T1 construct: His tag-GB1-TEV site fusion expressed in E. coli BL21; His-GB1 removed by TEV cleavage
Briefly: ITC, MDM2 titrated into compound, single-site fit. It is filed as binding. The text has this: ITC, MDM2 titrated into compound, single-site fit on MDM2
(In general: In ITC the heat of successive injections is recorded.)

T1 sequence (Q00987 5-125): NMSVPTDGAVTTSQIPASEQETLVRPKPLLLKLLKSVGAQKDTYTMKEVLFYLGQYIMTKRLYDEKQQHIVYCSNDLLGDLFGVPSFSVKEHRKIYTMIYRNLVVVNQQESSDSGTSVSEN

Consider `O=S(=O)(NC(c1c[nH]c2cccc(Cl)c12)C(Cl)(Cl)Cl)c1ccc(Cl)cc1` (stereo not shown) [M2-10], for which binding was characterised by a dissociation constant (Kd) of 578 nM.
With `Cc1ccc(S(=O)(=O)NC(c2c[nH]c3cc(F)ccc23)C(Cl)(Cl)Cl)cc1` (stereo not shown) [M2-18], the affinity, expressed as Kd, was 1330 nM.
Still for that read-out and setting: for `O=S(=O)(NC(c1c[nH]c2cccc(F)c12)C(Cl)(Cl)Cl)c1ccc(Cl)cc1` (stereo not shown) [M2-7] the value was 979 nM; for `Cc1ccc(C2CC(=O)N2C(C(=O)Nc2c(C)cccc2C)c2ccc(Cl)cc2)o1` (stereo not shown) [M1-11], 13100 nM; for `Cc1ccc2c(C(NS(=O)(=O)c3ccc(Cl)cc3)C(Cl)(Cl)Cl)c[nH]c2c1` (stereo not shown) [M2-12], 844 nM.
For the molecule `O=S(=O)(NC(c1c[nH]c2cc(F)cc(F)c12)C(Cl)(Cl)Cl)c1ccc(Cl)cc1` (stereo not shown) [M2-13], binding was characterised by a dissociation constant (Kd) of 489 nM.
The same measure, in the same setting: the figure for `COc1ccccc1-c1nnc(SC2CCCCC2=O)n1-c1ccc(Cl)cc1` (stereo not shown) [M3] is 16600 nM.
On the same count and under the same terms, for `O=S(=O)(NC(c1c[nH]c2ccccc12)C(Cl)(Cl)Cl)c1ccc(Cl)cc1` (stereo not shown) [M2] the value was 2080 nM; for `Cc1cccc(C)c1NC(=O)C(c1ccc(Cl)cc1)N1C(=O)CC1c1cccc(C(F)(F)F)c1` (stereo not shown) [M1-7], 33500 nM.
Same read-out and setting: for `O=S(=O)(NC(c1c[nH]c2ccc(F)cc12)C(Cl)(Cl)Cl)c1ccc(Cl)cc1` (stereo not shown) [M2-8] the value was 1580 nM.
Regarding `Cc1cccc(C)c1NC(=O)C(c1ccc(Cl)cc1)N1C(=O)CC1c1ccsc1` (stereo not shown) [M1-10], the Kd (in general, the concentration at which binding is half-saturated) stood at 19500 nM.
Same read-out and setting: the figure for `COc1cc(Cl)ccc1S(=O)(=O)NC(c1c[nH]c2ccccc12)C(Cl)(Cl)Cl` (stereo not shown) [M2-15] is 3160 nM; for `O=S(=O)(NC(c1c[nH]c2cc(Cl)ccc12)C(Cl)(Cl)Cl)c1ccc(Cl)cc1` (stereo not shown) [M2-11] it is 704 nM.
In the case of `Cc1[nH]c2ccccc2c1C(NS(=O)(=O)c1ccc(Cl)cc1)C(Cl)(Cl)Cl` (stereo not shown) [M2-3], the dissociation constant (Kd) (50 mM sodium phosphate pH 6.8, 150 mM NaCl, 5% DMSO, 1 mM TCEP) was 49700 nM.
In turn, `Cc1cccc(C)c1NC(=O)C(c1ccc(Cl)cc1)N1C(=O)CC1c1ccc(OC(C)C)cc1` (stereo not shown) [M1] yielded a Kd of 2850 nM.
The same measure, in the same setting: for `O=S(=O)(NC(c1c[nH]c2cc(F)ccc12)C(Cl)(Cl)Cl)c1ccc(Cl)cc1` (stereo not shown) [M2-14] the value was 1220 nM.
